Literature values as cited in patent US20060079481A1, “Method of treating/preventing mucositis” (priority 2004, published 2006).

Columns and labels:
oral mucositis [1] = settings: Dodd et al. 1996
oral mucositis [2] = settings: for effect in oral mucositis / risk of indirect mucotoxicity from bacteria and fungi: literature reports; for risk of indirect mucotoxicity from bacteria and fungi: prophylactic use

Row | Molecule | effect in oral mucositis (oral mucositis [2]) | risk of indirect mucotoxicity from bacteria and fungi (oral mucositis [2]) | further results
1 | O=c1[nH]cc(F)c(=O)[nH]1 [5-fluorouracil] |  |  | prevalence of chemotherapy-induced oral mucositis (oral mucositis [1]): 75%
2 | Oc1ncnc2[nH]ncc12 [allopurinol] | failed to show effect |  | 
3 | [H]/N=C(\N/C(=N/[H])NCCCCCCNC(=N)NC(=N)Nc1ccc(Cl)cc1)Nc1ccc(Cl)cc1 [chlorhexidine] |  | reduce the risk | 
4 | Clc1ccccc1C(c1ccccc1)(c1ccccc1)n1ccnc1 [clotrimazole] |  | reduce the risk | 
5 | C[C@@H]1[C@H](O)[C@@H](C)/C=C/C=C/CC/C=C/C=C/C=C/C=C/C(O[C@H]2O[C@H](C)[C@@H](O)[C@H](N)[C@@H]2O)CC2O[C@](O)(CC(O)C(O)CCC(O)CC(O)CC(O)CC(=O)O[C@H]1C)CC(O)C2C(=O)O (stereo partly drawn) [nystatin] |  | reduce the risk | 
6 | CC(=O)CCCCn1c(=O)c2c(ncn2C)n(C)c1=O [pentoxifylline] | failed to show effect |  | 
7 | CCCCC[C@H](O)/C=C/[C@H]1[C@H](O)CC(=O)[C@@H]1C/C=C\CCCC(=O)O [prostaglandin E2] | failed to show effect |  | 
8 | Sucralfate |  |  | benefit in oral mucositis (oral mucositis [2]; patients receiving a cisplatin/fluorouracil regimen for various solid tumors (Pfeiffer et al. 1990)): modest benefit
9 | filgrastim: a granulocyte colony-stimulating factor (protein, chains of the INN, looked up) MTPLGPASSLPQSFLLKCLEQVRKIQGDGAALQEKLCATYKLCHPEELVLLGHSLGIPWAPLSSCPSQALQLAGCLSQLHSGLFLYQGLLQALEGISPELGPTLDTLQLDVADFATTIWQQMEELGMAPALQPTQGAMPAFASAFQRRAGGVLVASHLQSFLEVSYRVLRHLAQP | failed to show effect |  | 
